Experimental data taken from publication PMC6934184, “Selective DNA-PKcs inhibition extends the therapeutic index of localized radiotherapy and chemotherapy” (The Journal of Clinical Investigation, 2019).

Target: T1, NTRK2 (TRKB) (Homo sapiens, UniProt Q16620)
T1 construct: purchased Thermo Fisher Scientific (Life Technologies) SelectScreen
Experiment: SelectScreen Z'LYTE
Type: biochemical
Summary of the method: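 SelectScreen broad panel; activity (Z'LYTE, Adapta) plus binding formats. ATP: Km app for CSF1R Z'LYTE; 10 for CAMK1 Adapta. Readout = % per kinase.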

T1 sequence (Q16620 32-822): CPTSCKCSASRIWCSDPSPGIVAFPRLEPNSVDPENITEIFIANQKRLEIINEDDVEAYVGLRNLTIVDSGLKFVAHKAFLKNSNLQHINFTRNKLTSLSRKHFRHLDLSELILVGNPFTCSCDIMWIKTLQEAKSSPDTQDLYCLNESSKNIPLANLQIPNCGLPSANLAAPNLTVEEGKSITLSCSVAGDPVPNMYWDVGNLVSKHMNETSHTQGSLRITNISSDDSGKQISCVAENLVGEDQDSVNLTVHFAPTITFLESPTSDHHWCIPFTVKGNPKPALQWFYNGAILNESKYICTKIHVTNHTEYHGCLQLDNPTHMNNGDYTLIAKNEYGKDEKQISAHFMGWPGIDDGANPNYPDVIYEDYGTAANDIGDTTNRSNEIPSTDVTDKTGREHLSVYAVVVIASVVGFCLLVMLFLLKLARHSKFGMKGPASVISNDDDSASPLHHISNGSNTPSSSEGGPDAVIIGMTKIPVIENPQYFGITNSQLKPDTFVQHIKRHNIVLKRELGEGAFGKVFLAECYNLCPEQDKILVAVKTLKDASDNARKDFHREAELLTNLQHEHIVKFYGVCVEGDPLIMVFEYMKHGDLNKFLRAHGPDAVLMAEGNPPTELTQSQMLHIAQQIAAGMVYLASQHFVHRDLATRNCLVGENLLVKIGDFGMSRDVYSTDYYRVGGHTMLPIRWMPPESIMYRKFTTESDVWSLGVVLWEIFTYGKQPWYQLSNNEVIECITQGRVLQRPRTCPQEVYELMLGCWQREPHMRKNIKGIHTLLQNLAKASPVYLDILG

## CN(C(=O)CN1CCOCC1)c1ccc2sc3c(-c4cccc5c(=O)cc(N6CC7CCC(C6)O7)oc45)cccc3c2c1 [NU5455]
  inhibition at 1 µM: 5.1%
